The results in this text go back to ChEMBL document CHEMBL1909046, “DrugMatrix in vitro pharmacology data”.

The structures appear in SMILES notation. pIC50, pKi: −log10 of the molar value.

Histamine H2 receptor, sequence (P25021 whole entry): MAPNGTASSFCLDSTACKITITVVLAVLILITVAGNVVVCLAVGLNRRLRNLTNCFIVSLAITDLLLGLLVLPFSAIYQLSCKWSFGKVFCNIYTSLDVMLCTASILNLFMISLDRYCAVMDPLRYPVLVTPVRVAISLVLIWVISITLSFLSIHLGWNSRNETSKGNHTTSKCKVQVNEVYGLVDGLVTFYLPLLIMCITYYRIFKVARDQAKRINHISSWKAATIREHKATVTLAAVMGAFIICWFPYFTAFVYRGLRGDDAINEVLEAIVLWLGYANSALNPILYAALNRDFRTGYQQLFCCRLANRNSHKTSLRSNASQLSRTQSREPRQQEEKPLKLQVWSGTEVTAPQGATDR
Sodium-dependent dopamine transporter, sequence (Q01959 whole entry): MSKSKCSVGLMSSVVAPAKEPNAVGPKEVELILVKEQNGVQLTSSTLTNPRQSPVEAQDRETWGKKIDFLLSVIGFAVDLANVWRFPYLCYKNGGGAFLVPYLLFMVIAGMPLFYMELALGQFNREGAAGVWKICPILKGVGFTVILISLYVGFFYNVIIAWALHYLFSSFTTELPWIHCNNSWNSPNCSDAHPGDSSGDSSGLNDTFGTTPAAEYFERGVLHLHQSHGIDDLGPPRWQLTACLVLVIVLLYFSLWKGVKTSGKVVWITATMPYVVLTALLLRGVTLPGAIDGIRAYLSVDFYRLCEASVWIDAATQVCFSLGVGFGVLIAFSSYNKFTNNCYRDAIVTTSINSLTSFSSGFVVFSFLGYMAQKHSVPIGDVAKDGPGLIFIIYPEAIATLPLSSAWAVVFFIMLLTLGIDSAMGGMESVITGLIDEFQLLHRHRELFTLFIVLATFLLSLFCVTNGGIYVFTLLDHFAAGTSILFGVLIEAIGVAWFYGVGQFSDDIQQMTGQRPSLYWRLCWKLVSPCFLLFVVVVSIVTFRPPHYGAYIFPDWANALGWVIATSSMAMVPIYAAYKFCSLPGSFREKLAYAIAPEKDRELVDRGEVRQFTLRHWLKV
Tyrosine-protein kinase Fyn, sequence (P06241 whole entry): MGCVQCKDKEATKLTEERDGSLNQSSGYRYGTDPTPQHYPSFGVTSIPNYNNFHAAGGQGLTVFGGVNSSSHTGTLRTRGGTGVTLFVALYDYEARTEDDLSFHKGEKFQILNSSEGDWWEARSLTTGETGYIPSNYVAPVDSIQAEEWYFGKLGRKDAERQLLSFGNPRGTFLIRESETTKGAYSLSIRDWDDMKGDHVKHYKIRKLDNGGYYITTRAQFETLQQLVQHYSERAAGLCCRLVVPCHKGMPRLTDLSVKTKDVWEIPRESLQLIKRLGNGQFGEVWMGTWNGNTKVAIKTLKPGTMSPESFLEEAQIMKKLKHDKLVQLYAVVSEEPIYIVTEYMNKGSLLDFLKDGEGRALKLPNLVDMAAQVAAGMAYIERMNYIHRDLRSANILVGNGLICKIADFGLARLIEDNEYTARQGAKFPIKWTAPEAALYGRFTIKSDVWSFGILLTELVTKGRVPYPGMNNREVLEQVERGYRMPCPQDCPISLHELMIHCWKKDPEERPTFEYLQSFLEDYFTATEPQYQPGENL
Melanocortin receptor 3, sequence (P41968 whole entry): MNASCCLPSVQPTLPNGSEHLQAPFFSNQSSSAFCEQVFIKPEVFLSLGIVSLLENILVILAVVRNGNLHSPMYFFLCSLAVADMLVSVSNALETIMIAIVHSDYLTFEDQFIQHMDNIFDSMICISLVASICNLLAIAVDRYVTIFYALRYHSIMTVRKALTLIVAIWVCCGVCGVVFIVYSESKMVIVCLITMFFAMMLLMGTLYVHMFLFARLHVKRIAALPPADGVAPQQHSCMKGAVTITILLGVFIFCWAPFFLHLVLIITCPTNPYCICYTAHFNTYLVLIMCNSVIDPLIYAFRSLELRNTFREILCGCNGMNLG

Test system in the first assay: not listed separately
The assay is described as follows: DRUGMATRIX: GABAA, Flunitrazepam, Central radioligand binding (ligand: [3H] Flunitrazepam). In kind it is cell membranes, Rattus norvegicus, Wistar, Brain, Membrane. The settings on record: Not Active = under 50% inhibition at 10 µM.
`COC(=O)c1ccc(O)cc1` [METHYLPARABEN]: the IC50 result is reported as “Not Active” and the Ki result was “Not Active”.

For `c1ccc2[nH]c(-c3cscn3)nc2c1` [THIABENDAZOLE], the IC50 result is “Not Active” and the Ki entry was “Not Active”.

The assay is the same for the next values; noted with them: Not Active = under 50% inhibition at 10 µM; read-out: IC50.
`CN1[C@@H]2CC[C@H]1C[C@@H](OC(=O)c1c[nH]c3ccccc13)C2` [TROPISETRON]: the negative-log IC50 (pIC50) (commonly the IC50 on a negative log10 scale, so that one unit is a factor of ten) was 5.94.

The assay is the same for the next values; noted with them: Not Active = under 50% inhibition at 10 µM; read-out: Ki.
For `CN1[C@@H]2CC[C@H]1C[C@@H](OC(=O)c1c[nH]c3ccccc13)C2` [TROPISETRON], the pKi (as a rule, the negative decadic logarithm of the Ki, by convention in mol/L) is 6.03.

Test system in the next assay: not listed separately
The assay is described as follows: DRUGMATRIX: Sigma2 radioligand binding (ligand: [3H] Ifenprodil). It counts as cell membranes, Rattus norvegicus, Wistar, Brain, Membrane. The settings on record: Not Active = under 50% inhibition at 10 µM.
`CN1[C@@H]2CC[C@H]1C[C@@H](OC(=O)c1c[nH]c3ccccc13)C2` [TROPISETRON]: the IC50 entry is reported as “Not Active” and the Ki entry is given as “Not Active”.

Turning to `COC(=O)c1ccc(O)cc1` [METHYLPARABEN], the IC50 result is recorded as “Not Active” and the Ki result is recorded as “Not Active”.

For `c1ccc2[nH]c(-c3cscn3)nc2c1` [THIABENDAZOLE], the IC50 entry is listed as “Not Active” and the Ki result is “Not Active”.

A further assay concerns the target Receptor tyrosine-protein kinase erbB-2 (Homo sapiens, UniProt P04626). The assay is described as follows: biochemical. In kind it is cell-based, Insect cells. The conditions noted are these: insect cells.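 Note: inhibition of HER2 kinase enzyme activity, measured with Poly(Glu:Tyr) as the phosphorylation substrate; in other assays of this panel Not Active means under 50% inhibition at 10 µM.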
Turning to `CN1[C@@H]2CC[C@H]1C[C@@H](OC(=O)c1c[nH]c3ccccc13)C2` [TROPISETRON], the IC50 entry is “Not Active”.

`COC(=O)c1ccc(O)cc1` [METHYLPARABEN]: the IC50 result is “Not Active”.

Regarding `c1ccc2[nH]c(-c3cscn3)nc2c1` [THIABENDAZOLE], the IC50 entry was “Not Active”.

Another assay concerns the target T1, Caspase-1 (Homo sapiens, UniProt P29466).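 Note: Caspase-1 enzyme inhibition assay with a peptide substrate; in other assays of this panel Not Active means under 50% inhibition at 10 µM.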
T1 sequence (P29466 whole entry): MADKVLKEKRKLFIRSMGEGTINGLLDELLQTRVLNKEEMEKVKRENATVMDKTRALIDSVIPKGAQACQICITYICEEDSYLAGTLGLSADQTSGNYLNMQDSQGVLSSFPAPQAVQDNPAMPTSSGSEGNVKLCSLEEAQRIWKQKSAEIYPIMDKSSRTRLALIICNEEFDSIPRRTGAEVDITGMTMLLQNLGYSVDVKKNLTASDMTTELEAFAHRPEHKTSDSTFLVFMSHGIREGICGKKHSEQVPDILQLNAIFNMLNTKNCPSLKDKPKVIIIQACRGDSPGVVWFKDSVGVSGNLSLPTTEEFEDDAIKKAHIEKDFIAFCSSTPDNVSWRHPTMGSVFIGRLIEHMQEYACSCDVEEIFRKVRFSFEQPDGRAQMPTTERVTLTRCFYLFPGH
Test: not given
Further details: species or system Escherichia coli.
Conditions: not given
As to `CN1[C@@H]2CC[C@H]1C[C@@H](OC(=O)c1c[nH]c3ccccc13)C2` [TROPISETRON], the IC50 entry is on record as “Not Active”.

On to `COC(=O)c1ccc(O)cc1` [METHYLPARABEN], for which the IC50 entry was “Not Active”.

Regarding `c1ccc2[nH]c(-c3cscn3)nc2c1` [THIABENDAZOLE], the IC50 result is recorded as “Not Active”.

A further assay has as its target Histamine H2 receptor (Homo sapiens, UniProt P25021). Note: in other assays of this panel Not Active means under 50% inhibition at 10 µM.
Test: not given
It counts as cell membranes, CHO-K1, Membrane. The conditions noted are these: cho-k1.
For the compound `CN1[C@@H]2CC[C@H]1C[C@@H](OC(=O)c1c[nH]c3ccccc13)C2` [TROPISETRON], the IC50 result is recorded as “Not Active”.

Turning to `COC(=O)c1ccc(O)cc1` [METHYLPARABEN], the IC50 result is “Not Active”.

With `c1ccc2[nH]c(-c3cscn3)nc2c1` [THIABENDAZOLE], the IC50 entry was “Not Active”.

The target of another assay is T2, Muscarinic acetylcholine receptor M5 (Homo sapiens, UniProt P08912). Note: in other assays of this panel Not Active means under 50% inhibition at 10 µM.
T2 sequence (P08912 whole entry): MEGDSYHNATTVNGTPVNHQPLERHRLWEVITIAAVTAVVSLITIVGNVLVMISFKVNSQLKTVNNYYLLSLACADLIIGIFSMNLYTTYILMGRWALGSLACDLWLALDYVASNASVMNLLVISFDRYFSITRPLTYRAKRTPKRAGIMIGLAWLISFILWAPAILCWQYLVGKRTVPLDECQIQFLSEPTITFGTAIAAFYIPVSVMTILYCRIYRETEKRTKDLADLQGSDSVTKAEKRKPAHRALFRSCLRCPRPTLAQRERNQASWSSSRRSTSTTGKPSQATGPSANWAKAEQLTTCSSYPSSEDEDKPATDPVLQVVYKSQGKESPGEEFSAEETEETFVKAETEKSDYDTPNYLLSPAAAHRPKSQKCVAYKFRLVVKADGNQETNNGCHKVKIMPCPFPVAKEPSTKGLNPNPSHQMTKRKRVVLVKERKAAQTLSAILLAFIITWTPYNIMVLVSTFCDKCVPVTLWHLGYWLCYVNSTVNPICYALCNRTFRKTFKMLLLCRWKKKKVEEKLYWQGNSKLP
Test: not given
In kind it is cell membranes, CHO-K1, Membrane. The settings on record: cho-k1.
With `COC(=O)c1ccc(O)cc1` [METHYLPARABEN], the IC50 entry is reported as “Not Active”.

As to `c1ccc2[nH]c(-c3cscn3)nc2c1` [THIABENDAZOLE], the IC50 result was “Not Active”.

Still in this assay, the particulars now being: read-out: IC50.
On to `CN1[C@@H]2CC[C@H]1C[C@@H](OC(=O)c1c[nH]c3ccccc13)C2` [TROPISETRON], for which the pIC50 is 5.46.

The same assay, now with this note: read-out: Ki.
As to `CN1[C@@H]2CC[C@H]1C[C@@H](OC(=O)c1c[nH]c3ccccc13)C2` [TROPISETRON], the pKi is 5.61.

Test system in a further assay: not listed separately
The assay is described as follows: DRUGMATRIX: Leukotriene, BLT (LTB4) radioligand binding (ligand: [3H]LTB4). The settings on record: u-937; Not Active = under 50% inhibition at 10 µM. In kind it is cell membranes, Membrane.
For `CN1[C@@H]2CC[C@H]1C[C@@H](OC(=O)c1c[nH]c3ccccc13)C2` [TROPISETRON], the IC50 result is recorded as “Not Active” and the Ki entry is “Not Active”.

Turning to `COC(=O)c1ccc(O)cc1` [METHYLPARABEN], the IC50 entry is recorded as “Not Active” and the Ki entry was “Not Active”.

For `c1ccc2[nH]c(-c3cscn3)nc2c1` [THIABENDAZOLE], the IC50 result is recorded as “Not Active” and the Ki result is on record as “Not Active”.

In the next assay the target is Insulin receptor (Rattus norvegicus, UniProt P15127). Note: in other assays of this panel Not Active means under 50% inhibition at 10 µM.
Insulin receptor, sequence (P15127 27-759 limits assumed): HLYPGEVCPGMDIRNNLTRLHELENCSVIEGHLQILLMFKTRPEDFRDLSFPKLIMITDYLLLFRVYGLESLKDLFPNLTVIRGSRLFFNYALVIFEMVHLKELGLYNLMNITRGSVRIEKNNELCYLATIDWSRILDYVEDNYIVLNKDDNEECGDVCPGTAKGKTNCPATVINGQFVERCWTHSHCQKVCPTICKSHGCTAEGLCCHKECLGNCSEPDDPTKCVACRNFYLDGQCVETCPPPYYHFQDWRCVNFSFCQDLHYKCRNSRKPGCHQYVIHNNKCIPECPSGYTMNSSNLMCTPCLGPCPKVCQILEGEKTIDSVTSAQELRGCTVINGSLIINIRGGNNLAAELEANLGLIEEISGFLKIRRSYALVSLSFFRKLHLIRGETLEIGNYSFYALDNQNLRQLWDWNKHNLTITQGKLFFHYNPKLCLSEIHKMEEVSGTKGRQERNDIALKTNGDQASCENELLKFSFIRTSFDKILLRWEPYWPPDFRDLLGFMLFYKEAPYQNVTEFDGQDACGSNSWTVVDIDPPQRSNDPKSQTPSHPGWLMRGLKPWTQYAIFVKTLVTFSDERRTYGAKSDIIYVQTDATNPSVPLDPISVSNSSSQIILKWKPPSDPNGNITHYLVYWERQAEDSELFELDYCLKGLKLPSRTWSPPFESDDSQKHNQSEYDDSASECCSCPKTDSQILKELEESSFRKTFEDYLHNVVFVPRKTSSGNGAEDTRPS
Insulin receptor, sequence (P15127 764-1383 limits assumed): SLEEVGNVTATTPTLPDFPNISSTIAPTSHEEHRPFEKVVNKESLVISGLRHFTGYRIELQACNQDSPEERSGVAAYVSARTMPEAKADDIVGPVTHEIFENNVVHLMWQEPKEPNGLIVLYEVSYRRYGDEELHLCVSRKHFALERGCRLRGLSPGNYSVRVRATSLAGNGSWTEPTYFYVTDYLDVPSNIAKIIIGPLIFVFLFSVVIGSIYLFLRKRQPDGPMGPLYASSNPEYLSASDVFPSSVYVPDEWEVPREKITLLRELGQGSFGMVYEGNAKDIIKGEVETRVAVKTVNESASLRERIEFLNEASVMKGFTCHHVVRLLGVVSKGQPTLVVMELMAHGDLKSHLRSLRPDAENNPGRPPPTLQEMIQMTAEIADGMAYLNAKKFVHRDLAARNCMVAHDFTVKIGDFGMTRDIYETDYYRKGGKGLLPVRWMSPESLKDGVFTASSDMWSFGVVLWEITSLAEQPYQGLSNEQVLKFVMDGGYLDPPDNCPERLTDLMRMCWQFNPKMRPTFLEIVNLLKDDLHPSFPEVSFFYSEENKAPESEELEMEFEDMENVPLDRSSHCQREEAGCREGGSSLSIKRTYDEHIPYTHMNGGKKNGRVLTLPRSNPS
Test: not given
In kind it is cell membranes, Wistar, Liver, Membrane.
Conditions: not given
On to `CN1[C@@H]2CC[C@H]1C[C@@H](OC(=O)c1c[nH]c3ccccc13)C2` [TROPISETRON], for which the IC50 entry is on record as “Not Active”.

On to `COC(=O)c1ccc(O)cc1` [METHYLPARABEN], for which the IC50 entry is “Not Active”.

As for `c1ccc2[nH]c(-c3cscn3)nc2c1` [THIABENDAZOLE], the IC50 entry is “Not Active”.

A further assay concerns the target Tyrosine-protein kinase Fyn (Homo sapiens, UniProt P06241). The assay is described as follows: biochemical. It counts as cell-based, Insect cells. The settings on record: insect cells.
Consider `CN1[C@@H]2CC[C@H]1C[C@@H](OC(=O)c1c[nH]c3ccccc13)C2` [TROPISETRON], for which the IC50 result is reported as “Not Active”.

In the case of `COC(=O)c1ccc(O)cc1` [METHYLPARABEN], the IC50 result is “Not Active”.

Turning to `c1ccc2[nH]c(-c3cscn3)nc2c1` [THIABENDAZOLE], the IC50 result was “Not Active”.

The target in the next assay is T3, Muscarinic acetylcholine receptor M4 (Homo sapiens, UniProt P08173). Note: in other assays of this panel Not Active means under 50% inhibition at 10 µM.
T3 sequence (P08173 whole entry): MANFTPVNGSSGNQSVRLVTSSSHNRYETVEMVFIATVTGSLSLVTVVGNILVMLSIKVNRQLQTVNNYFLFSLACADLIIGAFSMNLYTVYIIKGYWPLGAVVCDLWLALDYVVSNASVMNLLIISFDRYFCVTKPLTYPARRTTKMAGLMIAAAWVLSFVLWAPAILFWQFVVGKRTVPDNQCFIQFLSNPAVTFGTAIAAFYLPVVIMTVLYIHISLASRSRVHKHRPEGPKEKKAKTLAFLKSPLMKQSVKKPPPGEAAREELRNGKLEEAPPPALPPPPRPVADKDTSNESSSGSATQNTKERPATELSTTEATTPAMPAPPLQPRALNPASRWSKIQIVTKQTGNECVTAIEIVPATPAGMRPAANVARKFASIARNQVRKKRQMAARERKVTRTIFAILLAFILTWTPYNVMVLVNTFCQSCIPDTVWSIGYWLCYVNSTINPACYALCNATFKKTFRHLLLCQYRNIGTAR
Test: not given
It counts as cell membranes, CHO-K1, Membrane. The conditions noted are these: cho-k1.
For `CN1[C@@H]2CC[C@H]1C[C@@H](OC(=O)c1c[nH]c3ccccc13)C2` [TROPISETRON], the IC50 result was “Not Active”.

In the case of `COC(=O)c1ccc(O)cc1` [METHYLPARABEN], the IC50 result is on record as “Not Active”.

Turning to `c1ccc2[nH]c(-c3cscn3)nc2c1` [THIABENDAZOLE], the IC50 result is given as “Not Active”.

A further assay has as its target T4, Neutrophil elastase (Homo sapiens, UniProt P08246).
T4 sequence (P08246 whole entry): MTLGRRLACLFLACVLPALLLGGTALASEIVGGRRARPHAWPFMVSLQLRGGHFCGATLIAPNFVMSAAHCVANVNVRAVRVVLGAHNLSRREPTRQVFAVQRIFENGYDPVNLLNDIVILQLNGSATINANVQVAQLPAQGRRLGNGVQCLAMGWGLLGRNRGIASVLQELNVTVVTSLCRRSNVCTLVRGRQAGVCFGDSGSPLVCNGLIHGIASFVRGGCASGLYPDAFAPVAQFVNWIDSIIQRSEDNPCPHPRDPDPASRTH
Test: not given
It counts as tissue-based.
Conditions: not given
Regarding `CN1[C@@H]2CC[C@H]1C[C@@H](OC(=O)c1c[nH]c3ccccc13)C2` [TROPISETRON], the IC50 result is on record as “Not Active”.

Take `COC(=O)c1ccc(O)cc1` [METHYLPARABEN]: the IC50 result is listed as “Not Active”.

As to `c1ccc2[nH]c(-c3cscn3)nc2c1` [THIABENDAZOLE], the IC50 entry is reported as “Not Active”.

The next assay deals with Melanocortin receptor 5 (Homo sapiens, UniProt P33032).
Melanocortin receptor 5, sequence (P33032 whole entry): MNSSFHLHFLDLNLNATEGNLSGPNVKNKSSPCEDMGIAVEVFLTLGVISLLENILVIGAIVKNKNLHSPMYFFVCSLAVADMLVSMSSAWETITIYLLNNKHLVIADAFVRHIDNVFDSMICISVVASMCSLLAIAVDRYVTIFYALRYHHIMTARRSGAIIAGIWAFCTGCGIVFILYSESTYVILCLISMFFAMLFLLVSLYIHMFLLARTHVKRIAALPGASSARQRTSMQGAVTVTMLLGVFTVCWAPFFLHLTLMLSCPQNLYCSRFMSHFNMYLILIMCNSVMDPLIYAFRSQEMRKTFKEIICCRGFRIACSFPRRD
Test: not given
It counts as cell membranes, HEK293, Membrane. The settings on record: hek293.
Take `CN1[C@@H]2CC[C@H]1C[C@@H](OC(=O)c1c[nH]c3ccccc13)C2` [TROPISETRON]: the IC50 entry is recorded as “Not Active”.

For `COC(=O)c1ccc(O)cc1` [METHYLPARABEN], the IC50 result is “Not Active”.

On to `c1ccc2[nH]c(-c3cscn3)nc2c1` [THIABENDAZOLE], for which the IC50 entry is on record as “Not Active”.

Another assay concerns the target Melanocortin receptor 3 (Homo sapiens, UniProt P41968). Note: in other assays of this panel Not Active means under 50% inhibition at 10 µM.
Test: not given
The settings on record: hek293. In kind it is cell membranes, Membrane.
Take `CN1[C@@H]2CC[C@H]1C[C@@H](OC(=O)c1c[nH]c3ccccc13)C2` [TROPISETRON]: the IC50 result is “Not Active”.

For `COC(=O)c1ccc(O)cc1` [METHYLPARABEN], the IC50 result is given as “Not Active”.

Consider `c1ccc2[nH]c(-c3cscn3)nc2c1` [THIABENDAZOLE], for which the IC50 entry is “Not Active”.

The next assay has as its target Sodium-dependent dopamine transporter (Homo sapiens, UniProt Q01959). Briefly: DRUGMATRIX: Dopamine Transporter radioligand binding (ligand: [125I] RTI-55). In kind it is cell membranes, CHO-K1, Membrane. The settings on record: cho-k1; Not Active = under 50% inhibition at 10 µM.
With `CN1[C@@H]2CC[C@H]1C[C@@H](OC(=O)c1c[nH]c3ccccc13)C2` [TROPISETRON], the IC50 entry is “Not Active”.

For the compound `COC(=O)c1ccc(O)cc1` [METHYLPARABEN], the IC50 entry was “Not Active”.

Regarding `c1ccc2[nH]c(-c3cscn3)nc2c1` [THIABENDAZOLE], the IC50 result is “Not Active”.

In a further assay the target is 5-hydroxytryptamine receptor 1B (Rattus norvegicus, UniProt P28564). Note: in other assays of this panel Not Active means under 50% inhibition at 10 µM.
5-hydroxytryptamine receptor 1B, sequence (P28564 whole entry): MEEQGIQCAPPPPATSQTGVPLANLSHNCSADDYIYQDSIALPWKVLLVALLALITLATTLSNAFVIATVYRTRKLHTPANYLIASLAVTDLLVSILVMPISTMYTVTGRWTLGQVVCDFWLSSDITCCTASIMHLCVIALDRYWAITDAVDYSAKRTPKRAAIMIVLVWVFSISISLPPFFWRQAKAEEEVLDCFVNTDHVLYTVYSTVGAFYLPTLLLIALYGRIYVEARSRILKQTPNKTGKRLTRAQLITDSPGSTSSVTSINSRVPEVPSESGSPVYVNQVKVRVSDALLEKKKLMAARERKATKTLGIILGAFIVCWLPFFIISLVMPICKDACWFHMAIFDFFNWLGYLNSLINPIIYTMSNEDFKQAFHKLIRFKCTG
Test: not given
It counts as cell membranes, Wistar, Cerebral cortex, Membrane.
Conditions: not given
Turning to `CN1[C@@H]2CC[C@H]1C[C@@H](OC(=O)c1c[nH]c3ccccc13)C2` [TROPISETRON], the IC50 result was “Not Active”.

Consider `COC(=O)c1ccc(O)cc1` [METHYLPARABEN], for which the IC50 entry is “Not Active”.

Consider `c1ccc2[nH]c(-c3cscn3)nc2c1` [THIABENDAZOLE], for which the IC50 entry is listed as “Not Active”.
